Laboratory results taken from PubChem BioAssay (NCI).
“And” between values parts separate entries of the source, which are not always exact repeats. Identical values can stand only once.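 Assay format: 96-well plates, 48-hour exposure. GI50 = concentration required for 50% inhibition of growth. TGI denotes the concentration required for complete inhibition of growth.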

Key:
Assay in all cases: NCI tumour cell line growth inhibition, 48 h
[1] = system: LOX IMVI melanoma
[2] = system: SNB-19 CNS
[3] = system: RPMI-8226 leukemia
[4] = system: SW-620 colon
[5] = system: HT29 colon
[6] = system: U251 CNS
[7] = system: SR leukemia
[8] = system: TK-10 renal
[9] = system: HCT-116 colon
[10] = system: OVCAR-4 ovarian
[11] = system: UACC-62 melanoma
[12] = system: NCI-H23 lung
[13] = system: SF-268 CNS
[14] = system: ACHN renal
[15] = system: BT-549 breast
[16] = system: HOP-62 NSCLC
[17] = system: SNB-75 CNS
[18] = system: A549 NSCLC
[19] = system: MCF7 breast
[20] = system: MALME-3M melanoma
[21] = system: IGROV1 ovarian
[22] = system: K-562 leukemia
[23] = system: T-47D breast
[24] = system: SF-295 CNS
[25] = system: NCI/ADR-RES ovarian
[26] = system: MDA-MB-231 breast
[27] = system: SK-MEL-28 melanoma
[28] = system: SF-539 CNS
[29] = system: PC-3 prostate
[30] = system: SK-MEL-5 melanoma
[31] = system: M14 melanoma
[32] = system: OVCAR-5 ovarian
[33] = system: OVCAR-8 ovarian
[34] = system: A498 renal
[35] = system: MOLT-4 leukemia
[36] = system: NCI-H522 lung
[37] = system: OVCAR-3 ovarian
[38] = system: UACC-257 melanoma
[39] = system: DU-145 prostate
[40] = system: SK-MEL-2 melanoma
[41] = system: UO-31 renal
[42] = system: RXF 393 renal
[43] = system: SN12C renal
[44] = system: KM12 colon
[45] = system: MDA-MB-435
[46] = system: 786-0 renal
[47] = system: COLO 205 colon
[48] = system: HOP-92 NSCLC
[49] = system: SK-OV-3 ovarian
[50] = system: NCI-H460 lung
[51] = system: HL-60(TB) leukemia
[52] = system: NCI-H226 lung
[53] = system: HCT-15 colon
[54] = system: HS 578T breast
[55] = system: CCRF-CEM leukemia
[56] = system: EKVX NSCLC
[57] = system: CAKI-1 renal
[58] = system: HCC-2998 colon

COc1ccccc1Cn1cc2c(c1)-c1oncc1CC2
GI50 [1]: 946 nM | TGI [1]: 23100 nM | GI50 [2]: 625 nM | TGI [2]: > 100000 nM | GI50 [3]: 454 nM | GI50 [4]: 351 nM | TGI [4]: > 100000 nM | GI50 [5]: 351 nM | TGI [5]: 11700 nM | GI50 [6]: 503 nM | TGI [6]: 39000 nM | GI50 [7]: 379 nM | TGI [7]: 8950 nM | GI50 [8]: 2670 nM | TGI [8]: > 78000 nM | GI50 [9]: 390 nM | TGI [9]: 13600 nM | GI50 [10]: 3860 nM | TGI [10]: 97900 nM | GI50 [11]: 1110 nM | TGI [11]: > 100000 nM | GI50 [12]: 800 nM | TGI [12]: > 55300 nM | GI50 [13]: 1210 nM | TGI [13]: > 75100 nM | GI50 [14]: 2120 nM | TGI [14]: > 100000 nM | GI50 [15]: 7500 nM | TGI [15]: > 100000 nM | GI50 [16]: 1020 nM | TGI [16]: > 100000 nM | GI50 [17]: 396 nM | TGI [17]: 9700 nM | GI50 [18]: 825 nM | TGI [18]: > 75000 nM | GI50 [19]: 381 nM | TGI [19]: > 66500 nM | GI50 [20]: 1410 nM | TGI [20]: > 100000 nM | GI50 [21]: 1840 nM | TGI [21]: > 78700 nM | GI50 [22]: 391 nM | TGI [22]: > 33500 nM | GI50 [23]: 2150 nM | TGI [23]: > 100000 nM | GI50 [24]: 375 nM | TGI [24]: 3880 nM | GI50 [25]: 529 nM | TGI [25]: 3700 nM | GI50 [26]: 1340 nM | TGI [26]: > 100000 nM | GI50 [27]: 2520 nM | TGI [27]: > 100000 nM | GI50 [28]: 453 nM | TGI [28]: 5130 nM | GI50 [29]: 2010 nM | TGI [29]: > 100000 nM | GI50 [30]: 450 nM | TGI [30]: 6770 nM | GI50 [31]: 549 nM | TGI [31]: > 41900 nM | GI50 [32]: 756 nM | TGI [32]: > 74100 nM | GI50 [33]: 1920 nM | TGI [33]: > 50800 nM | GI50 [34]: 269 nM | TGI [34]: 3440 nM | GI50 [35]: 477 nM | TGI [35]: 14800 nM | GI50 [36]: 1220 nM | TGI [36]: 5080 nM | GI50 [37]: 307 nM | TGI [37]: 888 nM | GI50 [38]: 10400 nM | TGI [38]: > 63600 nM | GI50 [39]: 357 nM | TGI [39]: 3400 nM | GI50 [40]: 4430 nM | TGI [40]: 72700 nM | GI50 [41]: 4280 nM | TGI [41]: 42700 nM | GI50 [42]: 1310 nM | TGI [42]: > 21400 nM | GI50 [43]: 728 nM | TGI [43]: > 100000 nM | GI50 [44]: 435 nM | TGI [44]: 6940 nM | GI50 [45]: 208 nM | TGI [45]: 545 nM | GI50 [46]: 2440 nM | TGI [46]: 29700 nM | GI50 [47]: 553 nM | TGI [47]: 2430 nM | GI50 [48]: 2750 nM | TGI [48]: 57700 nM | GI50 [49]: 460 nM | TGI [49]: 8440 nM | GI50 [50]: 334 nM | TGI [50]: 4750 nM | GI50 [51]: 268 nM | TGI [51]: 814 nM | GI50 [52]: 6990 nM | TGI [52]: > 100000 nM | GI50 [53]: 535 nM | TGI [53]: > 61200 nM | GI50 [54]: 384 nM | TGI [54]: 3030 nM | GI50 [55]: 290 nM | GI50 [56]: 830 nM | TGI [56]: > 94200 nM | GI50 [57]: 545 nM | TGI [57]: > 55800 nM | GI50 [58]: 873 nM | TGI [58]: 6870 nM

Cn1c(=O)n(-c2ccc(C(C)(C)C#N)cc2)c2c3cc(-c4cnc5ccccc5c4)ccc3ncc21
GI50 [1]: < 10 nM and 5.22 nM | TGI [1]: > 100000 nM | GI50 [2]: 12 nM and 6.05 nM and 10.2 nM | TGI [2]: > 100000 nM | GI50 [3]: < 11.6 nM and 6.03 nM and < 11.4 nM | TGI [3]: 385 nM and 3130 nM and 1240 nM | GI50 [4]: 16.3 nM and 7.34 nM and < 11.6 nM | TGI [4]: > 100000 nM | GI50 [5]: 10.1 nM and 6.03 nM and < 10 nM | GI50 [6]: < 11.7 nM and 5.99 nM and < 10 nM | TGI [6]: 10400 nM and > 10000 nM and > 100000 nM | GI50 [7]: 38.6 nM and 5.51 nM and < 13.7 nM | TGI [7]: > 100000 nM | GI50 [8]: 10.2 nM and 6.52 nM and 12.6 nM | GI50 [9]: 31.2 nM and 9.38 nM and 29.8 nM | TGI [9]: > 100000 nM | GI50 [10]: 16.2 nM and 4.09 nM and 10 nM | GI50 [11]: 11.2 nM and 4.94 nM and < 10 nM | TGI [11]: 80.9 nM and 51.3 nM and 44.5 nM | GI50 [12]: 16.9 nM and 8.38 nM and < 12.7 nM | TGI [12]: 15900 nM and > 10000 nM and > 100000 nM | GI50 [13]: 12.6 nM and 6.57 nM and < 10.9 nM | TGI [13]: > 100000 nM | GI50 [14]: < 12.1 nM and 5.73 nM and < 10 nM | TGI [14]: > 100000 nM | GI50 [15]: 4.93 nM and < 10 nM | GI50 [16]: < 10 nM and 6.05 nM | TGI [16]: 11900 nM and > 2720 nM | GI50 [17]: < 1 nM | TGI [17]: 46.4 nM and 26.3 nM | GI50 [18]: 10.2 nM and 5.94 nM and < 10 nM | GI50 [19]: < 10 nM and 5.62 nM | TGI [19]: 12200 nM and > 5840 nM and > 100000 nM | GI50 [20]: 5.76 nM and < 10 nM | TGI [20]: 40 nM and 56.8 nM | GI50 [21]: < 10 nM and 3.63 nM | TGI [21]: 25.8 nM and 38.1 nM | GI50 [22]: 31.5 nM and 7.31 nM and 11.8 nM | TGI [22]: > 100000 nM | GI50 [23]: < 10 nM and 14.1 nM | TGI [23]: 48.8 nM and 81.7 nM | GI50 [24]: < 10 nM and 4.01 nM | TGI [24]: 27.8 nM and 20.3 nM and 18.1 nM | GI50 [25]: 21.2 nM and 8.49 nM and 19.7 nM | TGI [25]: > 100000 nM | GI50 [26]: 19.7 nM and 6.86 nM and < 11 nM | TGI [26]: 48500 nM and > 10000 nM and > 44300 nM | GI50 [27]: 16 nM and 32.8 nM and < 12.3 nM | GI50 [28]: < 10 nM and 5.03 nM | TGI [28]: 76.1 nM and 31.6 nM and 118 nM | GI50 [29]: < 10 nM and 6.3 nM | TGI [29]: > 100000 nM | GI50 [30]: 15.4 nM and 6.46 nM and < 15.2 nM | TGI [30]: 91.1 nM and 106 nM and 85.9 nM | GI50 [31]: 18 nM and 6.56 nM and < 10 nM | GI50 [32]: 21.3 nM and 7.59 nM and 15.9 nM | TGI [32]: > 100000 nM | GI50 [33]: 10.1 nM and 5.82 nM and < 10 nM | GI50 [34]: < 10 nM and 3.65 nM | TGI [34]: 7 nM and 30.6 nM | GI50 [35]: 25 nM and 7.03 nM and 14.8 nM | GI50 [36]: < 10.7 nM and 6.46 nM and < 11.2 nM | GI50 [37]: < 10 nM and 6.09 nM and 10.1 nM | GI50 [38]: < 10.5 nM and 6.72 nM and < 10 nM | TGI [38]: 49.3 nM and 436 nM and 45.7 nM | GI50 [39]: < 10 nM and 5.75 nM | TGI [39]: 33800 nM and > 10000 nM and > 100000 nM | GI50 [40]: 12 nM and 5.98 nM and 13.7 nM | TGI [40]: 50.5 nM and 292 nM and 74.4 nM | GI50 [41]: < 10 nM and 3.61 nM | TGI [41]: 74.9 nM | GI50 [42]: < 10 nM and 3.51 nM | TGI [42]: 60.5 nM and 7.81 nM and 18.1 nM | GI50 [43]: 10.1 nM and 4.61 nM and < 10 nM | TGI [43]: > 100000 nM | GI50 [44]: 13.4 nM and 6.83 nM and 15.3 nM | TGI [44]: 1280 nM and > 10000 nM | GI50 [45]: < 10 nM and 5.72 nM | TGI [45]: 68.7 nM | GI50 [46]: < 11.8 nM and 5.42 nM and < 10 nM | GI50 [47]: 23.1 nM and 5.93 nM | TGI [47]: 702 nM and 938 nM | GI50 [48]: < 10 nM and 4.31 nM | TGI [48]: 62.2 nM and 122 nM and 65.1 nM | GI50 [49]: < 10 nM and 4.94 nM | TGI [49]: 44.2 nM and 54.9 nM and 29.3 nM | GI50 [50]: < 10 nM and 5.81 nM | TGI [50]: > 100000 nM | GI50 [51]: 70.1 nM and 70.5 nM and 78.3 nM | TGI [51]: 2400 nM and > 5010 nM | GI50 [52]: < 1 nM | GI50 [53]: < 10 nM and 5.22 nM | TGI [53]: > 100000 nM | GI50 [54]: < 10 nM and 2.04 nM | TGI [54]: 19.5 nM and 5.87 nM | GI50 [55]: < 10 nM and 5.75 nM and < 10.9 nM | TGI [55]: > 100000 nM | GI50 [56]: 15.2 nM and 5.73 nM and < 12 nM | TGI [57]: 40.1 nM | GI50 [58]: < 10 nM and 6.1 nM | TGI [58]: > 100000 nM
